US6958335B2, “Treatment of gastrointestinal stromal tumors” (Novartis AG, priority 2000, dated 2005)
Where two headings read alike, the source gives them in different places.

Key:
[1] = test system: unresectable metastatic GIST; settings: for total tumour size (tumour area of 8 large measurable liver metastases, MRI): 112.5 cm^2 before treatment
Protocol: Seven cycles of IADIC (ifosfamide, doxoribicin, and dacarbazine) were given from November 1998 to March 1999 for multiple liver metastases. […] They were subsequently treated between April 1999 and February 2000 with an experimental regimen consisting of thalidomide 400 mg once daily and interferon alpha 0.9 MU T.I.D. s.c. to control persisting liver disease.
(§1) Treatment toxicity was assessed at follow-up visits performed at 2 to 4 week intervals, and blood cell counts and blood chemistry were analysed at 1 to 2 week intervals. Treatment response was assessed with dynamic MRI scans, ^18F-fluorodeoxyglucose (FDG) positron emission tomography (PET) examinations, and cutting needle biopsies from a liver metastasis. Dynamic MRI was performed with a 1.5T Magnetom Vision (Siemens, Erlangen, Germany). Fat-suppressed T1-weighted breathhold gradient echo transaxial images were obtained both before and after intravenous contrast medium injection (0.1 mmol/kg gadolinium-DOTA; Dotarem, Guerbet, France). The enhancement pattern was established using sequential imaging over 5 minutes, and delayed scanning was performed after 10 minutes. FDG PET was done using an 8-ring ECAT 931/08 device (Siemens-CTI Corp. Knoxville, Tenn.). The FDG dose given varied between 355 to 375 MBq.

[2] = test system: unresectable and/or metastatic malignant gastrointestinal stromal tumors (GIST)
Protocol: A phase 2, open-label, randomized multinational study was conducted in patients with unresectable and/or metastatic malignant gastrointestinal stromal tumors (GIST). […] The primary evidence of efficacy was based on objective response rates, and the time to response, duration of response, time to treatment failure and survival were also evaluated. Tumors were required to be measurable in at least one site of disease, and response characterization based on Southwestern Oncology Group (SWOG) criteria.

[3] = test system: GIST
Text: At the priority date of the present patent application a clinical study with more GIST patients was being conducted analogously to the study described in Example 1.

[4] = during therapy
Protocol: as §1, with “minutes.” for “minutes. FDG PET was done using an 8-ring ECAT 931/08 device (Siemens-CTI Corp. Knoxville, Tenn.). The FDG dose given varied between 355 to 375 MBq.”

[5] = among the 61 patients with stable disease

CS(=O)(=O)O.Cc1ccc(NC(=O)c2ccc(CN3CCN(C)CC3)cc2)cc1Nc1nccc(-c2cccnc2)n1 [SALT I]
metabolic response in tumour (PET imaging) ([1]; 400 mg daily orally, within 1 month): complete metabolic response
decrease of total tumour size (MRI) ([1]; 1 month): 52%
total tumour size (tumour area of 8 large measurable liver metastases, MRI) ([1]; 1 month): 54.3 cm^2
decrease of total tumour size (MRI) ([1]; 2 months): 63%
total tumour size (tumour area of 8 large measurable liver metastases, MRI) ([1]; 2 months): 41.5 cm^2
decrease of total tumour size (MRI) ([1]; 2 weeks after starting): 41%
total tumour size (tumour area of 8 large measurable liver metastases, MRI) ([1]; 2 weeks after starting): 66.9 cm^2
decrease of total tumour size (MRI) ([1]; 4 months): 68%
total tumour size (tumour area of 8 large measurable liver metastases, MRI) ([1]; 4 months): 36.2 cm^2
decrease of total tumour size (MRI) ([1]; 5.5 months): 71%
total tumour size (tumour area of 8 large measurable liver metastases, MRI) ([1]; 5.5 months): 32.5 cm^2
FDG uptake in PET ([1]; PET 1 month after starting): no abnormal FDG uptake was present in the liver
FDG uptake in PET at the sites of liver metastases ([1]; PET 2 months after starting): less FGD uptake than the surrounding liver parenchyma
World Health Organization (WHO) performance status ([1]; during therapy, improved from 1 before): 0
new lesions ([1]; follow-up MRI on treatment): No new lesions appeared
liver metastases that disappeared ([1]; of the 28 liver metastases, follow-up MRI on treatment): 6
pattern of contrast enhancement of tumour by dynamic MRI ([1]; within 2 weeks after starting): decreased dramatically
Best response: Complete response ([2]; 400 mg (N = 73)): 0 n (%)
Best response: Not evaluable ([2]; 400 mg (N = 73)): 3 (4.1) n (%)
Best response: Partial response ([2]; 400 mg (N = 73)): 27 (37.0) n (%)
Best response: Progressive disease ([2]; 400 mg (N = 73)): 10 (13.7) n (%)
Best response: Stable disease ([2]; 400 mg (N = 73)): 33 (45.2) n (%)
Best response: Unknown ([2]; 400 mg (N = 73)): 0 n (%)
differences between dose groups in efficacy parameters ([2]; 400 mg vs 600 mg): could not be observed
Best response: Complete response ([2]; 600 mg (N = 74)): 0 n (%)
Best response: Not evaluable ([2]; 600 mg (N = 74)): 4 (5.4) n (%)
Best response: Partial response ([2]; 600 mg (N = 74)): 32 (43.2) n (%)
Best response: Progressive disease ([2]; 600 mg (N = 74)): 8 (10.8) n (%)
Best response: Stable disease ([2]; 600 mg (N = 74)): 28 (37.8) n (%)
Best response: Unknown ([2]; 600 mg (N = 74)): 2 (2.7) n (%)
Best response: Complete response ([2]; All doses (N = 147)): 0 n (%)
Best response: Not evaluable ([2]; All doses (N = 147)): 7 (4.8) n (%)
Best response: Partial response ([2]; All doses (N = 147)): 59 (40.1) n (%)
Best response: Stable disease ([2]; All doses (N = 147)): 61 (41.5) n (%)
Best response: Unknown ([2]; All doses (N = 147)): 2 (1.4) n (%)
patients with reduction in tumor size by more than 25% on at least one assessment ([2]; all 147 patients): 118 patients
share of patients with reduction in tumor size by more than 25% on at least one assessment ([2]; all 147 patients): 80%
patients with partial response not yet confirmed by a second assessment [2, 5]: 28 patients
patients with reduction in tumor size by more than 25% [2, 5]: 19 patients
patients with significant tumor shrinkage among stable disease [2, 5]: 47 patients
estimate of patients free from treatment failure ([2]; at 12 weeks, interval censoring): 80%
estimate of patients free from treatment failure ([2]; at 12 weeks, without interval-censoring): 81%
estimate of patients free from treatment failure ([2]; at 24 weeks, interval censoring): 66%
estimate of patients free from treatment failure ([2]; at 24 weeks, without interval-censoring): 67%
median time to the onset of response ([2]; entire study population): 12 weeks
relapse among patients with confirmed response ([2]; interim analysis): No patients with confirmed response had relapsed
median duration of response ([2]; interim analysis, no interval censoring): approximately 14 weeks
median time to treatment failure ([2]; interval censoring, pooled population, based on only two patients, not reliable): 54 weeks
reduction in patients with partial response ([3]; 8 patients): 50-66%
reduction in patients with stable disease ([3]; 18 patients): 4-42%
patients with partial response ([3]; of 27 evaluated patients): 8 patients
patients with stable disease ([3]; of 27 evaluated patients): 18 patients
patients with progression of the disease ([3]; of 27 evaluated patients, study not finished): 1 patient
drug-related liver, renal or cardiac toxicity [4]: No drug-related liver, renal or cardiac toxicity was observed
